Earlier results on one compound are cited in patent publication US20100317636A1, “REDUCING THE RISK OF CHRONIC LUNG DISEASE IN INFANTS” (China Medical University, a Taiwan corporation, priority 2006, published 2010).

For data set [1] the following is noted: Ryrfeldt et al. (1982).

Consider `CCCC1O[C@@H]2C[C@H]3[C@@H]4CCC5=CC(=O)C=C[C@]5(C)[C@H]4[C@@H](O)C[C@]3(C)[C@]2(C(=O)CO)O1` (stereo partly drawn) [Budesonide, 16 alpha, 17 alpha-(22R,S)-propylmethylenedioxypregna-1,4-diene-11 beta, 21-diol-3,20-dione], for which the solubility in chloroform entry (chloroform) is given as “freely soluble”. Besides, the solubility in ethanol entry (ethanol) is “sparingly soluble”. Moreover, the solubility in heptane entry (heptane) is “practically insoluble”. Also, the solubility in water result (water) is reported as “practically insoluble”. Further, the “degradation in the liver” value in data set [1] is recorded as “rapidly degraded”.
